Test results taken from PubChem BioAssay (NCI).
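Method: 48-hour compound exposure of cells in 96-well plates, five concentrations, linear interpolation of endpoints. GI50 marks 50% less growth. TGI: total growth inhibition.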

Assays:
Test in all cases: NCI tumour cell line growth inhibition, 48 h
786-0 renal = test system: 786-0 renal
A498 renal = test system: A498 renal
A549 NSCLC = test system: A549 NSCLC
ACHN renal = test system: ACHN renal
BT-549 breast = test system: BT-549 breast
CAKI-1 renal = test system: CAKI-1 renal
CCRF-CEM leukemia = test system: CCRF-CEM leukemia
COLO 205 colon = test system: COLO 205 colon
DU-145 prostate = test system: DU-145 prostate
EKVX NSCLC = test system: EKVX NSCLC
HCT-15 colon = test system: HCT-15 colon
HL-60(TB) leukemia = test system: HL-60(TB) leukemia
HOP-62 NSCLC = test system: HOP-62 NSCLC
HOP-92 NSCLC = test system: HOP-92 NSCLC
HS 578T breast = test system: HS 578T breast
HT29 colon = test system: HT29 colon
IGROV1 ovarian = test system: IGROV1 ovarian
K-562 leukemia = test system: K-562 leukemia
KM12 colon = test system: KM12 colon
LOX IMVI melanoma = test system: LOX IMVI melanoma
M14 melanoma = test system: M14 melanoma
MALME-3M melanoma = test system: MALME-3M melanoma
MCF7 breast = test system: MCF7 breast
MDA-MB-231 breast = test system: MDA-MB-231 breast
MDA-MB-435 = test system: MDA-MB-435
MOLT-4 leukemia = test system: MOLT-4 leukemia
NCI-H226 lung = test system: NCI-H226 lung
NCI-H23 lung = test system: NCI-H23 lung

`CCOC(=O)c1sc2nc(=S)[nH]c(NC(N)=S)c2c1C` was tested, and the GI50 (786-0 renal) was 21.5 µM, the TGI (786-0 renal) was 45.5 µM and the GI50 (A498 renal) was 27.8 µM. It also gave a TGI (A498 renal) of 62 µM, a GI50 (A549 NSCLC) of 31.2 µM and a TGI (A549 NSCLC) of 90.7 µM. The GI50 (ACHN renal) was 15.7 µM, the TGI (ACHN renal) was 32.8 µM and the GI50 (BT-549 breast) was 12.6 µM. It also gave a TGI (BT-549 breast) of 41 µM, a GI50 (CAKI-1 renal) of 31.4 µM and a TGI (CAKI-1 renal) of 61.7 µM. The GI50 (CCRF-CEM leukemia) was 7.22 µM, the TGI (CCRF-CEM leukemia) was 73.9 µM and the GI50 (COLO 205 colon) was 18.6 µM. For the same molecule, the TGI (COLO 205 colon) was 48.4 µM, the GI50 (DU-145 prostate) was 15.4 µM and the TGI (DU-145 prostate) was 39.4 µM. It also gave a GI50 (EKVX NSCLC) of 2.49 µM, a TGI (EKVX NSCLC) of 30.6 µM and a GI50 (HCT-15 colon) of 16.7 µM. The TGI (HCT-15 colon) was 39.2 µM, the GI50 (HL-60(TB) leukemia) was 51.2 µM and the TGI (HL-60(TB) leukemia) was over 100 µM. The GI50 (HOP-62 NSCLC) was 21 µM, the TGI (HOP-62 NSCLC) was 49.7 µM and the GI50 (HOP-92 NSCLC) was 4.58 µM. It also gave a TGI (HOP-92 NSCLC) of 37.5 µM, a GI50 (HS 578T breast) of 26 µM and a TGI (HS 578T breast) of 59.7 µM. The GI50 (HT29 colon) was 20.1 µM, the TGI (HT29 colon) was 52.9 µM and the GI50 (IGROV1 ovarian) was 31.5 µM. For the same molecule, the TGI (IGROV1 ovarian) was over 100 µM, the GI50 (K-562 leukemia) was 28.3 µM and the TGI (K-562 leukemia) was over 100 µM. It also gave a GI50 (KM12 colon) of 23.5 µM, a TGI (KM12 colon) of 52.7 µM and a GI50 (LOX IMVI melanoma) of 15.4 µM. The TGI (LOX IMVI melanoma) was 31 µM, the GI50 (M14 melanoma) was 26.5 µM and the TGI (M14 melanoma) was 64.6 µM. For the same molecule, the GI50 (MALME-3M melanoma) was 37 µM, the TGI (MALME-3M melanoma) was 72.1 µM and the GI50 (MCF7 breast) was 16.5 µM. The TGI (MCF7 breast) was 37.2 µM, the GI50 (MDA-MB-231 breast) was 12.1 µM and the TGI (MDA-MB-231 breast) was 31.9 µM. It also gave a GI50 (MDA-MB-435) of 30.5 µM, a TGI (MDA-MB-435) of 70.3 µM and a GI50 (MOLT-4 leukemia) of 30.1 µM. For the same molecule, the TGI (MOLT-4 leukemia) was over 100 µM, the TGI (NCI-H226 lung) was 21.1 µM and the GI50 (NCI-H23 lung) was 14.8 µM. For the same molecule, the TGI (NCI-H23 lung) was 37.1 µM.
